Measurements reported in patent US8008258B2, “Cop 1 for treatment of inflammatory bowel diseases” (Yeda Research and Development Co. Ltd., priority 2003, dated 2011).
Marks after values point to notes of the source that are not given here.

What was measured:
TNBS-induced colitis = TNBS-induced colitis in BALB/c mice, oral GA treatment; type: in vivo; parameters: key to Macroscopic scoring of colon damage: Ulceration (max 10): 0 = completely normal, 10 = most severe ulceration; key to Macroscopic scoring of colon damage: Adhesion (max 2): adhesions score 0 to 2; key to Macroscopic scoring of colon damage: Diarrhea (max 1): diarrhea score 0 to 1; key to Macroscopic scoring of colon damage: Thickness (max 1): thickness score 0 to 1
Description: Induction of cholitis in mice. TNBS-colitis was induced by rectal instillation of 2,4,6-trinitrobenzene sulfonic acid 5% (w/v), mixed with an equal volume of ethanol, into anesthetized mice (100 μl/mouse). Each treatment group included 6-12 mice. Mice that died before day 4 were considered as treatment casualties and were not taken into consideration.
Assessment of colitis. Weight changes and survival were monitored daily. Five to eight days following TNBS instillation, mice were sacrificed and macroscopic as well as microscopic colonic damage was evaluated.
Macroscopic colonic scoring. Gross colonic damage was graded according to Reuter et al. (1996), using the combined values of the four standard macroscopic parameters: degree of colonic ulcerations (scale from 0—completely normal, to 10—most severe); intestinal and peritoneal adhesions (0 to 2); diarrhea (0 to 1); and thickness (0 to 1). The total score is the arithmetic sum of the four scores. The evaluation was performed in a blind procedure.
Microscopic scoring. Proximal, medial, and distal portions of colon were fixed in 10% phosphate-buffered formalin. Paraffin-embedded sections were stained with hematoxylin and eosin. The degree of histological damage and inflammation was graded according to Elson et al. (1996) using the combined values of the four microscopic parameters: extent (scale from 0—completely normal, to 2—involving more than one segment); inflammation (0—none to 3—severe); damage (0 to 3—severe transmural); and regeneration (0—complete re-eptihelization to 3—none). The total score is the arithmetic sum of the four scores. The evaluation was performed in a blind procedure.
Oral treatment—250 μg/day in PBS, fed by gastric intubation with an 18-gauge stainless steel feeding needle. Unless otherwise stated, feedings were performed on days-7, -5, -3, -1, 0, 2, 4 and 6, relative to the day of TNBS instillation.
Colitis was induced by TNBS in 50% ethanol. […] Colonic scoring was performed 7 or 8 days after disease induction. Mice that died during the first 2 days (usually around 20% in all groups) were considered as treatment casualties and thus are not presented; each group contained 4-7 mice that survived after day 2.

[1] = test system: TNF-α secretion by spleen and MLN cells; assay: TNF-α secretion by spleen and MLN cells (ELISA); type: cell-based, mice
Description: FIGS. 5A-5C show the effect of GA on TNF-α secretion in different mouse strains. The responses of normal mice, colitis-induced mice, and colitis-induced mice treated with GA orally or parenterally daily are compared in the BALB/c (FIG. 5A), (SJL/JxBALB/c)F1 (FIG. 5B), and SJL/J (FIG. 5C) strains. Cells from spleens and mesenteric lymph nodes (MLN) were cultured, 7 days after disease induction, with immobilized anti-CD3 (5 μg/ml). After 24 hours, supernatants from six culture wells were pooled and TNF-α was measured by ELISA in duplicates. Results are expressed as TNF-α concentration (pg/ml±SD) and represent one of two similar experiments, using pooled cells from 3-5 mice in each group. # Indicates significant increase in TNF-α in colitic mice in comparison to normal mice. * Indicates significant decrease in TNF-α induced by GA treatment in comparison to untreated colitis induced mice.
Reactivity assays. Spleens and mesenteric lymph nodes (MLN) cells (0.5×10^6 cell/well) were cultured with either GA (50 μg/ml), colon extract (200 μg/ml), immobilized anti-CD3 (5 μg/ml), or PBS control, in a final volume of 250 μl/well (6 wells for each antigen). For proliferation assay, cells were cultured in RPMI 1640 with 10% FCS, pulsed with 1 μCi of [3H] thymidine after 48 h incubation, and harvested 12 h later. For cytokine (TNF-α and TGF-β) assay, cells were cultured in serum-free medium (DCCM-1), supernatants were collected after 72 h, and tested for the cytokines by ELISA using mAbs pairs (R&D Systems, Minneapollis, Minn.) according to the manufacturer's instruction.

[2] = Average of three experiments, GA oral 250 μg/mouse every other day from day −7, scoring 7 or 8 days after induction
[3] = Exp. No. 1, GA oral 250 μg/mouse every other day from day −7, scoring 7 or 8 days after induction
[4] = Exp. No. 2, GA oral 250 μg/mouse every other day from day −7, scoring 7 or 8 days after induction
[5] = Exp. No. 3, GA oral 250 μg/mouse every other day from day −7, scoring 7 or 8 days after induction
[6] = GA no colitis (GA oral without TNBS induction)
[7] = Timing study, GA oral 250 μg/mouse every other day starting day 0, 8 feedings
[8] = Timing study, GA oral 250 μg/mouse every other day starting day +2, 6 feedings
[9] = Timing study, GA oral 250 μg/mouse every other day starting day −3, 8 feedings
[10] = Timing study, GA oral 250 μg/mouse every other day starting day −7, 8 feedings

glatiramer acetate [GA]
Macroscopic scoring of colon damage: Adhesion (max 2) (TNBS-induced colitis; [2]): 0.4 | Macroscopic scoring of colon damage: Diarrhea (max 1) (TNBS-induced colitis; [2]): 0.2 | Macroscopic scoring of colon damage: Thickness (max 1) (TNBS-induced colitis; [2]): 0.0 | Macroscopic scoring of colon damage: Ulceration (max 10) (TNBS-induced colitis; [2]): 2.1 | Macroscopic scoring of colon damage: Adhesion (max 2) (TNBS-induced colitis; [3]): 0.6 | Macroscopic scoring of colon damage: Diarrhea (max 1) (TNBS-induced colitis; [3]): 0.0 | Macroscopic scoring of colon damage: Thickness (max 1) (TNBS-induced colitis; [3]): 0.0 | Macroscopic scoring of colon damage: Total Score (max 14) (TNBS-induced colitis; [3]): 1.6* | Macroscopic scoring of colon damage: Ulceration (max 10) (TNBS-induced colitis; [3]): 1.0 | Macroscopic scoring of colon damage: Adhesion (max 2) (TNBS-induced colitis; [4]): 0.5 | Macroscopic scoring of colon damage: Diarrhea (max 1) (TNBS-induced colitis; [4]): 0.5 | Macroscopic scoring of colon damage: Thickness (max 1) (TNBS-induced colitis; [4]): 0.0 | Macroscopic scoring of colon damage: Total Score (max 14) (TNBS-induced colitis; [4]): 4.4* | Macroscopic scoring of colon damage: Ulceration (max 10) (TNBS-induced colitis; [4]): 3.4 | Macroscopic scoring of colon damage: Adhesion (max 2) (TNBS-induced colitis; [5]): 0.1 | Macroscopic scoring of colon damage: Diarrhea (max 1) (TNBS-induced colitis; [5]): 0.0 | Macroscopic scoring of colon damage: Thickness (max 1) (TNBS-induced colitis; [5]): 0.0 | Macroscopic scoring of colon damage: Total Score (max 14) (TNBS-induced colitis; [5]): 2.1* | Macroscopic scoring of colon damage: Ulceration (max 10) (TNBS-induced colitis; [5]): 2.0 | Macroscopic scoring of colon damage: Adhesion (max 2) (TNBS-induced colitis; [6]): 0.0 | Macroscopic scoring of colon damage: Diarrhea (max 1) (TNBS-induced colitis; [6]): 0.0 | Macroscopic scoring of colon damage: Thickness (max 1) (TNBS-induced colitis; [6]): 0.0 | Macroscopic scoring of colon damage: Total Score (max 14) (TNBS-induced colitis; [6]): 0.0 | Macroscopic scoring of colon damage: Ulceration (max 10) (TNBS-induced colitis; [6]): 0.0 | Reduction in disease severity (total macroscopic score) versus control (TNBS-induced colitis; GA oral feedings started seven days before TNBS, total of 8 feedings every other day): 5.2 fold | Reduction in disease severity (total macroscopic score) versus control (TNBS-induced colitis; GA oral treatment started on the day of TNBS inoculation, or two days after disease induction): 2.2 fold | Reduction in disease severity (total macroscopic score) versus control (TNBS-induced colitis; GA oral treatment started three days before induction): 2.75 fold | Mortality due to the disease process (TNBS-induced colitis; GA oral, 8 days after induction): 20% | Reduction of average histological score versus colitis group (TNBS-induced colitis; GA oral, day 7, p=0.007): 2.8 folds | Average histological score (from a maximal score of 12.0) (TNBS-induced colitis; GA oral, mice surviving till day 7): 2.8 | Histological or macroscopic damage (TNBS-induced colitis; GA treatment without TNBS induction): did not result in any histological or macroscopic damage | Macroscopic scoring of colon damage: Adhesion (max 2) (TNBS-induced colitis; [7]): 0.7 | Macroscopic scoring of colon damage: Diarrhea (max 1) (TNBS-induced colitis; [7]): 0.0 | Macroscopic scoring of colon damage: Thickness (max 1) (TNBS-induced colitis; [7]): 0.0 | Macroscopic scoring of colon damage: Total Score (max 14) (TNBS-induced colitis; [7]): 5.0* | Macroscopic scoring of colon damage: Ulceration (max 10) (TNBS-induced colitis; [7]): 4.3 | Macroscopic scoring of colon damage: Adhesion (max 2) (TNBS-induced colitis; [8]): 0.3 | Macroscopic scoring of colon damage: Diarrhea (max 1) (TNBS-induced colitis; [8]): 0.0 | Macroscopic scoring of colon damage: Thickness (max 1) (TNBS-induced colitis; [8]): 0.0 | Macroscopic scoring of colon damage: Total Score (max 14) (TNBS-induced colitis; [8]): 5.0* | Macroscopic scoring of colon damage: Ulceration (max 10) (TNBS-induced colitis; [8]): 4.7 | Macroscopic scoring of colon damage: Adhesion (max 2) (TNBS-induced colitis; [9]): 0.5 | Macroscopic scoring of colon damage: Diarrhea (max 1) (TNBS-induced colitis; [9]): 0.0 | Macroscopic scoring of colon damage: Thickness (max 1) (TNBS-induced colitis; [9]): 0.0 | Macroscopic scoring of colon damage: Total Score (max 14) (TNBS-induced colitis; [9]): 4.0* | Macroscopic scoring of colon damage: Ulceration (max 10) (TNBS-induced colitis; [9]): 3.5 | Macroscopic scoring of colon damage: Adhesion (max 2) (TNBS-induced colitis; [10]): 0.1 | Macroscopic scoring of colon damage: Diarrhea (max 1) (TNBS-induced colitis; [10]): 0.0 | Macroscopic scoring of colon damage: Thickness (max 1) (TNBS-induced colitis; [10]): 0.0 | Macroscopic scoring of colon damage: Total Score (max 14) (TNBS-induced colitis; [10]): 2.1* | Macroscopic scoring of colon damage: Ulceration (max 10) (TNBS-induced colitis; [10]): 2.0 | Decrease of total macroscopic damage versus control (TNBS-induced colitis; average of three experiments, GA oral 250 μg/mouse, alternate days from day −7, 8 feedings): 3.8 fold | Macroscopic grade of representative colons (FIG. 1A) (TNBS-induced colitis; colons from two TNBS-induced mice treated orally with GA (0.25 mg/mouse, 8 feedings), 7 days after TNBS, focal hyperemia only): 1 | Maximum weight loss (of body weight) (TNBS-induced colitis; mice fed with GA, by day 3 after TNBS inoculation): 5% | Complete restoration of original weight (TNBS-induced colitis; mice fed with GA, day after TNBS inoculation): ≤ 5 days | Effect of GA treatment on TNF-α levels ([1]; SJL/J mice parenterally treated daily with GA): drastic decrease in TNF-α levels | Effect of GA treatment on TNF-α secretion in response to anti-CD3 ([1]; all strains, both spleens and MLN, all instances except MLN of SJL/J mice treated orally with GA): substantial reduction in TNF-α | TNF-α secretion on in vitro stimulation ([1]; in vitro stimulation of cells by GA (50 μg/ml)): did not result in secretion of TNF-α
